For this assay, the system named is CEM cells HIV-1 protection, formazan growth assay. Nature of the assay: NCI AIDS Antiviral Assay. Conditions: for IC50: measured here: growth of uninfected CEM cells. A digest of the protocol:
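Human CEM cells, uninfected and HIV-1-infected, received five drug concentrations, and growth was read by soluble formazan assay. Compounds giving at least 50% protection were retested; reproducible 100% protection defined confirmed active.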

Molecules are shown by their SMILES. “And” between values parts separate entries of the source, which are not always exact repeats. Equal entries are not always repeated. The source made the active and inactive calls.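 Rule for the calls: active = compounds giving half or more protection of infected cells from virus-caused growth loss, again on retest; inactive = the rest.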 Where a SMILES comes first, the peptide text is derived from it. [ ]: non-standard residue; d: D form. The star is where a group is joined. Chg = N[CH](C(=O)O)C1CCCCC1; Cbz = O=C(OCc1ccccc1)*; OBn = c1ccc(CO*)cc1

A word on the EC50: it is the concentration at which the effect is half-maximal. One may read the IC50 as the concentration at which inhibition is half-maximal. Higher therefore signals a need for much substance. As for `Cc1cc2c(=O)c3ccccc3oc2c(C(=O)O)c1C`, the EC50 is greater than 200 µM and the IC50 is greater than 200 µM. With `FC(F)(F)c1ccc(C2SCc3nc4ccccc4n32)cc1` (stereo unspecified), the result was inactive. As to `CC(=O)Oc1ccccc1-c1cc2ccccc2oc1=O`, the EC50 is greater than 200 µM and the IC50 is greater than 100 µM. Regarding `Cc1ccc(SSCCCS(=O)O)cc1`, the outcome was inactive. `Cc1ccc([P+](Cc2ccccc2)(c2ccccc2)c2cccc3ccccc23)cc1` (stereo unspecified): the EC50 was greater than 200 µM and the 50% inhibitory concentration (IC50) turned out to be 0.55 µM. With `CCO[C@H]1N(C2CC(N=[N+]=[N-])C(CO)O2)C(=O)NC(=O)[C@]1(C)Cl` (stereo partly specified), the EC50 is greater than 200 µM and the IC50 was greater than 200 µM. In the case of `COC(=O)[C@@H]1C[C@H]([Se]c2ccccc2)CN1C(=O)OCc1ccccc1`, the outcome was inactive. On to `CNC(=O)N(CCC#N)CCCN(C(=O)NC)c1ccccc1`, for which the EC50 was greater than 200 µM and the IC50 was greater than 200 µM.

Regarding `CC(C)(C)N=C(NO)c1ccccc1`, the outcome was inactive. With `CCCC(Sc1ccccc1)P(=O)(c1ccccc1)c1ccccc1` (stereo unspecified), the outcome was inactive. Turning to `COc1ccc(C(=O)/C=C/c2ccc3c(c2)OCO3)c(O)c1`, the EC50 is greater than 200 µM and the IC50 was determined as 81.3 µM. In the case of `CC1(C)OC(=O)C(=Cc2ccc(O)cc2)C(=O)O1`, the EC50 is greater than 1000 µM and the IC50 is 550 µM. Take `Cc1ccc(NC(=O)C(=O)CC(=O)c2c(C)n([O-])c3ccccc3[n+]2=O)cc1C`: the EC50 is greater than 64.6 µM and the IC50 is greater than 64.6 µM. On to `N#Cc1c(-c2ccccc2)cc(-c2ccc(Cl)cc2)[nH]c1=S`, for which the EC50 is greater than 200 µM and the IC50 is 33.9 µM. As for `O=C(Nc1ccc(S(=O)(=O)Nc2ccc(N=Nc3ccc(S(=O)(=O)Nc4nccs4)cc3)cc2)cc1)C(N1CC1)(N1CC1)N1CC1`, the EC50 is greater than 200 µM and the IC50 was 129 µM. The matching figures for `CCCCc1ccc(C2=C(O)C(=O)C(c3ccc(CCCC)cc3)=C(O)C2=O)cc1`: greater than 43.7 µM and 3.31 µM.

In the case of `NC(=O)O/N=C/c1ccccn1`, the EC50 is greater than 200 µM and the IC50 is greater than 200 µM. Take `O=c1c(Cc2ccccc2)c(O)n(Cc2nc3ccccc3[nH]2)c(=S)n1-c1ccccc1`: the EC50 was greater than 200 µM and the IC50 is greater than 200 µM. For `O=C1C(/C=N\C(=S)NCc2ccccc2)=C(O)c2ccccc21`, the EC50 was greater than 200 µM and the IC50 worked out at 67.6 µM.

Consider `Cc1ccc2c(c1-c1c(C)ccc3c1C(=O)c1ccccc1C3=O)C(=O)c1ccccc1C2=O`, for which the EC50 is greater than 200 µM and the IC50 was 7.76 µM.

With `Cc1ccc(C2SCC(=O)N2c2ccc(-n3c(-c4ccccc4)nc4ccccc4c3=O)cc2)cc1` (stereo unspecified), the EC50 is greater than 200 µM and the IC50 stood at 10.7 µM. On to `CC(C(=O)NCNC(=O)c1ccccc1)C(=O)NCc1ccccc1` (stereo unspecified), for which the result was inactive. In the case of `COC(=O)CCC(C)C1CCC2[C@@H]3CC[C@@H]4CC(CSC(C)=O)CC[C@]4(C)C3CC[C@]12C` (stereo partly specified), the EC50 is greater than 29.5 µM and the IC50 is greater than 29.5 µM.

With `O=C1C=C(Nc2ccccc2)c2ccccc2C1=O`, the EC50 is greater than 11 µM and the IC50 was greater than 11 µM.

For `COC(=O)C(=O)C(C(=O)C(=O)Nc1ccccc1C(C)=O)c1nc2ccc(C(=O)c3ccccc3)cc2[nH]c1=O` (stereo unspecified), the EC50 is greater than 93.3 µM and the IC50 was determined as 55 µM. With `C=C1CC2C[C@H](OS(=O)(=O)c3ccc(C)cc3)C(C1)N2C` (stereo partly specified), the EC50 was greater than 200 µM and the IC50 is greater than 200 µM. With `CC(C)(C)OC(=O)NCCNCCNc1ccccc1`, the result was inactive. With `Cc1cc(=O)c2ccccc2o1`, the result was inactive. `Cc1ccc(S(=O)(=O)C(C#N)c2nc3ccccc3nc2N2CCOCC2)cc1` (stereo unspecified): the EC50 is greater than 16.6 µM and the IC50 was greater than 16.6 µM. As to `CC#N.CC#N.COC(=O)[C@@H]1COC(=O)[N-]1.COC(=O)[C@@H]1COC(=O)[N-]1.COC(=O)[C@@H]1COC(=O)[N-]1.COC(=O)[C@@H]1COC(=O)[N-]1.[Rh+2].[Rh+2]`, the EC50 was greater than 200 µM and the IC50 is greater than 200 µM. With `CNC(=O)c1ncn(C2OC(CO)C(O)C2O)n1` (stereo unspecified), the EC50 was greater than 200 µM and the IC50 is greater than 200 µM.

`C=CC(C)(C)C1(CC(OC)OC)C(=O)N(C)c2ccccc21` (stereo unspecified): the EC50 was greater than 200 µM and the IC50 is greater than 200 µM. For the compound `Cc1ccccc1N(C)S(=O)(=O)c1ccccc1[N+](=O)[O-]`, the EC50 was greater than 200 µM and the IC50 turned out to be 38.9 µM. The corresponding values for `O=C1NCC2(CCNCC2)N1c1ccccc1` are greater than 200 µM and greater than 200 µM. With `O=C1C(=O)C(CCCO)(CCCO)CCCCCCCCC1(CCCO)CCCO`, the EC50 was greater than 200 µM and the IC50 stood at 102 µM. Consider `NC1=CN(CCCO)C2=N/C(=C\c3ccco3)C(=O)N12`, for which the outcome was inactive.

Take `CC(C)c1cccc(C(C)C)c1NC(=O)C(=O)C1SC(=S)NC1=O` (stereo unspecified): the EC50 was greater than 692 µM and the IC50 was greater than 692 µM.

On to `COC1/C=C/OC2(C)Oc3c(C)c(O)c4c(O)c(c(C=Nc5cccc(C)c5)c(O)c4c3C2=O)NC(=O)C(C)=C/C=C/C(C)C(O)C(C)C(O)C(C)C(OC(C)=O)C1C` (stereo unspecified), for which the EC50 was greater than 174 µM and the IC50 came to 28.8 µM. Regarding `COc1cccc(C2c3cc4c(cc3OC(N3CCOCC3)C2C)OCO4)c1OC` (stereo unspecified), the EC50 is greater than 200 µM and the IC50 is 1.7 µM. Regarding `CC(=O)N(C)c1ccc(/C=C2\C=Cc3ccccc32)cc1`, the EC50 is greater than 49 µM and the IC50 was determined as 12.3 µM. In the case of `CC1=C(C(=O)Nc2cc(=O)n(C)c(=O)n2C)C(c2ccco2)C(C(=O)Nc2cc(=O)n(C)c(=O)n2C)=C(C)N1`, the EC50 was greater than 93.3 µM and the IC50 was greater than 93.3 µM. Turning to `COc1cc(C)c(Cc2cnc(N)nc2N)cc1OC`, the EC50 was greater than 200 µM and the IC50 is greater than 200 µM. Regarding `OC(C#CCN1CCCC1)(c1ccccc1)c1ccc(Cl)cc1.[C-]#[O+].[C-]#[O+].[C-]#[O+].[C-]#[O+].[C-]#[O+].[C-]#[O+].[Co].[Co]` (stereo unspecified), the EC50 is greater than 200 µM and the 50% inhibitory concentration (IC50) was found to be 5.62 µM.

Consider `O=C(COc1ccc(OCC(=O)N2C(=O)CN(c3ccc(Cl)cc3)C2=S)cc1)N1C(=O)CN(c2ccc(Cl)cc2)C1=S`, for which the EC50 was greater than 200 µM and the IC50 was determined as 43.7 µM. Take `CC1(C)OC2OC(C(COC(=O)c3ccccc3)OC(=O)c3ccccc3)C(F)C2O1` (stereo unspecified): the EC50 was greater than 43.7 µM and the IC50 was greater than 43.7 µM. As for `NC(=O)NNC(=O)CCn1[nH]c(=O)c(Cl)c(Cl)c1=O`, the outcome was inactive. For `COc1c(Sc2ccccc2)cc(Sc2ccccc2)c2cccnc12`, the outcome was inactive. Consider `O=S(=O)(NCCSSCCNS(=O)(=O)c1ccc(Cl)cc1)c1ccc(Cl)cc1`, for which the EC50 is greater than 200 µM and the IC50 is 17.8 µM.

Take `COC(=O)C(C#N)=C1c2ccccc2Oc2ccccc21`: the EC50 was greater than 129 µM and the IC50 came to 66.1 µM. `CN1C(=O)Cc2ccccc21`: the EC50 is greater than 200 µM and the IC50 was determined as 151 µM.

With `O=C(O)c1cc(C(=CCC23CC4CC(CC(C4)C2)C3)c2cc(Cl)c(O)c(C(=O)O)c2)cc(Cl)c1O`, the EC50 was greater than 200 µM and the IC50 worked out at 105 µM. Regarding `O=C(N/N=C\c1cccs1)c1ccncc1`, the EC50 was greater than 200 µM and the IC50 is greater than 200 µM. On to `CCC(=O)N(c1ccccc1)C(C)CN1CCC(O)(c2ccccc2)CC1` (stereo unspecified), for which the EC50 is greater than 200 µM and the IC50 is greater than 200 µM. For the compound `CC(C)=NOC(=O)CNC(=O)C(Cc1ccccc1)NC(=O)C(C)NC(=O)OC(C)(C)C` (stereo unspecified), the EC50 was greater than 200 µM and the IC50 was greater than 200 µM. Turning to `CC(=O)OCC1OC(n2c(-c3ccccc3)c(C(C)=O)c(-c3cccc4ccccc34)c(C#N)c2=S)C(OC(C)=O)C(OC(C)=O)C1OC(C)=O` (stereo unspecified), the EC50 is greater than 200 µM; the IC50 was 85.1 µM and 117 µM. `NC1(S(=O)(=O)O)c2ccccc2-c2ccccc21`: the EC50 is greater than 200 µM and the IC50 was determined as 151 µM.

Take `COC(=O)C(NC(=O)C(CC(=O)OCc1ccccc1)NC(=O)OCc1ccccc1)C1CCCCC1` (stereo unspecified) (Cbz-Asp(OBn)-[Chg]-OMe; configuration not given here): the EC50 was greater than 200 µM and the IC50 stood at 105 µM. For the compound `O=C1C2=C(C(c3ccccc3)=C1c1ccccc1)c1ccccc1C1(c3ccccc3)C2=C(O)C(c2ccccc2)=C1c1ccccc1` (stereo unspecified), the result was inactive. Turning to `CN1C2=CC=CC=CC2=[N+](C)C1C(=C=[N-])C#N` (stereo unspecified), the EC50 was greater than 363 µM and the IC50 turned out to be 245 µM. Regarding `CCCCCNC(=O)C(O)C(O)C(=O)NCCCCC` (stereo unspecified), the EC50 was greater than 126 µM and the IC50 is greater than 126 µM. Turning to `CC(C)(C)c1cc(C(C)(C)C)c(N=O)c(C(C)(C)C)c1`, the EC50 was greater than 200 µM and the IC50 was greater than 200 µM. `COc1cc(C(=O)O[C@@H]2[C@@H](OC(=O)c3cc(OC)c(OC)c(OC)c3)[C@@H](OC)O[C@@H]3CO[C@@H](c4ccccc4)O[C@@H]23)cc(OC)c1OC`: the EC50 was greater than 200 µM and the IC50 is greater than 200 µM. In the case of `COc1ccc(/C(=N/O)c2ccccc2-c2nc3ccccc3c(=O)n2-c2ccc(S(=O)(=O)Nc3nccs3)cc2)cc1C`, the EC50 is greater than 50.1 µM and the IC50 is greater than 50.1 µM.

For the compound `Fc1ccc(Nc2nc(Cl)c3[nH]cnc3n2)cc1Cl`, the EC50 was greater than 200 µM and the IC50 was greater than 200 µM. For `N#Cc1c(N2CCOCC2)[nH]c(=O)n(-c2ccccc2)c1=S`, the EC50 is greater than 200 µM and the IC50 is greater than 200 µM. `Cc1cc(-c2ccc(N=Nc3c(S(=O)(=O)O)cc4cc(S(=O)(=O)O)cc(N)c4c3O)c(C)c2)ccc1N=Nc1cc(S(=O)(=O)O)c2ccccc2c1O`: the outcome was inactive.

In the case of `[Co].[NH-]CC[NH-].[NH-]CC[NH-].[NH-]CC[NH-]`, the EC50 was greater than 200 µM and the IC50 was greater than 200 µM.

Consider `O=c1[nH]c(Nc2cccc(C(F)(F)F)c2)nc2nc[nH]c12`, for which the EC50 is greater than 200 µM and the IC50 worked out at 97.7 µM. As to `C=CC(=O)NCCSSCCNC(=O)C=C`, the EC50 is greater than 200 µM and the IC50 was 115 µM. With `NC(Cc1cc(O)c(O)c(S(=O)(=O)c2ccccc2)c1)C(=O)O` (stereo unspecified), the outcome was inactive.

For the origin of these results see PubChem BioAssay AID179 (DTP/NCI, 2004).
